Measured values: US20060088496A1, “Personal care compositions with salts of hydroxypropyl trialkylammonium substituted mono-saccharide” (Unilever Home & Personal Care USA, Division of Conopco, Inc., priority 2004, published 2006)

System: Porcine epidermis
Test: moisturization efficacy test: weight change of porcine skin with relative humidity on an environmental microbalance
Details: difference in percent weight change, treated minus untreated skin, 1% active material in water solution; for From 0 to 80 to 20% Relative Humidity: 90 minutes at 20% relative humidity after 80% (water retained); for From 0 through 80% Relative Humidity: 90 minutes at 80% relative humidity (water picked up)
Experimental: This Example provides the results of moisturization efficacy tests. These tests involved evaluation on Porcine epidermis utilized as a human skin model. Equipment and protocol are outlined below. An environmental microbalance (Model MB-300W, VTI Corp., 2708 W 84th Street, Hialeah, Fla. 33016) was programmed to measure the change in weight of porcine skin as a function of relative humidity at a constant temperature and air flow. The porcine skin was evaluated before and after treatment with aqueous solutions of humectants to determine adsorption and retention of moisture. Sample preparation was done as follows: • Epidermal sections of porcine skin were cut to approximately 4 cm×1 cm. • The skin was washed in a 10% detergent solution and dried in a dessicator to a constant weight. This represents the Untreated material. • The skin was soaked in a 1% by weight aqueous solution of the test sample for 15 minutes, excess fluid was blotted off and the skin was dried to constant weight in a dessicator. This represents the Treated material. Sequence of conditions for the microbalance was as follows: • 30 minutes at 0% relative humidity. (Insures that sample is dry.) • 90 minutes at 80% relative humidity. […] (Determines amount of water retained.) The experiments were conducted as follows: • The weight of a piece of untreated skin was recorded continuously during the sequence. • The piece of untreated skin was treated with the test sample. • The weight of the treated piece of skin was recorded continuously during the sequence. • Data reduction consisted of calculating the percent weight change from the initial weight for the untreated and treated pieces of skin. The reported data was the difference between each treated piece and its corresponding untreated piece.

Row | SMILES | From 0 to 80 to 20% Relative Humidity | From 0 through 80% Relative Humidity
1 | OCC(O)CO [Glycerin] | 0.10 | 0.21
2 | C[N+](C)(C)CC(O)CCl.[Cl-] (stereo not shown) [Quat ® 188, 3-chloro-2-hydroxypropyl trimethylammonium chloride] | 0.10 | 0.21
